# Test results: patent publication US6114391A, “α-amino acid amides, preparation thereof and the therapeutical use thereof” (priority 1996, dated 2000)
# Entries after “also recorded” stand apart in the source; their conditions may differ. Where two headings read alike, the source gives them in different places.
# What was measured:
# convulsions = settings: WO 95/18617 and WO 96/21640; cited from earlier work
# [1] = tested on: tonic hind limb extensions (maximal electroshock), mouse; experiment: maximal electroshock (MES) test in mouse, suppression of tonic hind limb extensions; assay type: in vivo; settings: for ED50: po, 1 h, read-out: ED50 MES
# [2] = horizontal screen test in mouse (impaired motor function, neurotoxicity; therapeutic index); assay type: in vivo; settings: po, mouse
# Method: (§1) In this model mice are placed individually on top of a squire wire screen which is mounted horizontally on a metal rod, which is then rotated 180° so that mice are on the bottom of the screens. Impairment of the motor function is observed from the number of animals that falls from the screen or fail to climb to the top of the screens. The medial neurological toxic dose (TD50) is than calculated as above. The ratio of TD50 and ED50 refers to the therapeutic index (T.I.) for each compound. The T.I. is used to show a useful separation between neurotoxicity and antiepileptic activity. The larger the T.I. would indicate a better separation between the above activities and a good profile as anticonvulsants.
# motor function, mouse = experiment: as above; assay type: in vivo; settings: for T.I. (therapeutic index): ratio of TD50 (horizontal screen) and ED50 (MES), mouse p.o.; for T.I. (in words) / neurotoxicity / impairment of motor coordination (in words): mouse; for T.I. (in words): TD50/ED50; for neurotoxicity / impairment of motor coordination (in words): p.o., horizontal screen
# Method: as §1
# [3] = tested on: tonic hind limb extensions (maximal electroshock), rat; experiment: maximal electroshock (MES) test in rat, incl. time course of anticonvulsant activity; assay type: in vivo; settings: for Duration of action (time at which the protection is statistically significant) / Peak of activity (time of the maximal effect): MES, equiactive dose; for Duration of action (time at which the protection is statistically significant) / Peak of activity (time of the maximal effect) / ED50 / anticonvulsant activity in rat MES (in words): rat; for Duration of action (time at which the protection is statistically significant) / Peak of activity (time of the maximal effect) / anticonvulsant activity in rat MES (in words): p.o.; for ED50: po
# Method: The compounds of the invention were evaluated in some pharmacological tests in order to investigate their potential anticonvulsant activity. To this end, compounds were screened in the maximal electroshock (MES) test. This model is widely used to assess the efficacy of antiepileptic agents against generalized and partial seizures. This study was performed in both rat and mouse by using the experimental procedure described in W. Losher et al., Epilepsy Res., 2 (1988), 145-181. Briefly, a 60 Hz alternate current (mice 50 mA, rats 150 mA) was delivered for 0.2 sec through corneal electrods by means of an electrical stimulator. […] Groups of 10 animals per dose were used and the ED50 was calculated from the dose-effect curve accordingly to Litchfield and Wilcoxon (J. Pharmacol. Exp. Ther., 96 (1949), 99-113).
# In the rat MES model only the time course of anticonvulsant activity was evaluated. Groups of 10 rats were treated at their equiactive dose 30, 60, 120, 240, 360 and 480 min before the establishment of the electroshock. The peak of anticonvulsant activity and the duration of action were then evaluated.
# [4] = tested on: tonic convulsions induced by bicuculline, mouse; experiment: bicuculline-induced tonic convulsions in mouse; assay type: in vivo; settings: for anticonvulsant activity against bicuculline (in words): p.o.; for ED50: po, bicuculline s.c.
# Method: Further to the MES test in mouse, some compounds were also evaluated in the MES test in rat and in a chemical model of tonic convulsions induced by bicuculline accordingly to the procedure described in Swinyard E. A. et al., Antiepileptic Drugs, 3rd Edition, Raven Press, New York (1989).
# As reference compound FCE 26743 (S)-2-(4-(3-fluorobenzyloxy)benzylamino)propanamide was used, disclosed in the prior art in EP-B1-0400495.
# [5] = tested on: electro-shock convulsions, mouse; settings: claimed in WO 94/22808; cited from earlier work
# [6] = in vivo; cited from earlier work
# [7] = mouse, p.o., 60 min after administration, HCl salts
# [8] = horizontal screen test, p.o., HCl salts, read-out: TD50 Horizontal screen
# [9] = in vivo, p.o., HCl salts, read-out: TD50 Horizontal screen
structure (smiles),measurement,setting,value
"NC(=O)CNC1CCc2ccccc21 (racemic) [racemic N-(2-acetamido)-1-aminoindan, N-(2-acetamido)-1-aminoindan]",anticonvulsant activity (in words),convulsions,not very effective
same,therapeutic index (in words),convulsions,don't seem endowed with a particularly favorable therapeutic index
"NC(=O)[C@@H](CO)N[C@H]1CCc2ccccc2C1 [CHF 2983, 3-hydroxy-2-(R)-(1,2,3,4-tetrahydro-naphthalen-2-(S)ylamino)propanamide]",anticonvulsant activity / potency in MES (in words),"[1]; mouse, p.o.",A good profile of anticonvulsant activity
same,ED50,[1]; [7],43 mg/kg
same,TD50,[2]; [8],1300 mg/kg
same,T.I. (therapeutic index),"motor function, mouse",30
same,Duration of action (time at which the protection is statistically significant),[3],2 h
same,Peak of activity (time of the maximal effect),[3],1 h
same,ED50,[3],19 mg/kg
same,anticonvulsant activity in rat MES (in words),[3],more potent
same,anticonvulsant activity against bicuculline (in words),[4],in the same order of potency of their MES anticonvulsant activity
same,ED50,[4],62 mg/kg
NC(=O)[C@H](CO)N[C@@H]1CCc2ccccc2C1 [CHF 2991],anticonvulsant activity / potency in MES (in words),"[1]; mouse, p.o.",A good profile of anticonvulsant activity
same,ED50,[1]; [7],38 mg/kg
same,TD50,[2]; [8],1100 mg/kg
same,T.I. (therapeutic index),"motor function, mouse",29
"Cl.NC(=O)[C@H](CO)NC1Cc2ccccc2C1 [CHF 2993, (S)-3-hydroxy-2-(2-indanylamino)propanamide hydrochloride]",anticonvulsant activity / potency in MES (in words),"[1]; mouse, p.o.",equipotent in the MES test
same,ED50,[1]; [7],44 mg/kg
same,TD50,[2]; [9],1170 mg/kg
same,T.I. (therapeutic index),"motor function, mouse",27
same,duration of action (in words),[3]; MES time course,longest duration of action
same,Duration of action (time at which the protection is statistically significant),[3],6 h
same,Peak of activity (time of the maximal effect),[3],3 h
same,ED50,[3],31 mg/kg
same,anticonvulsant activity in rat MES (in words),[3],anticonvulsant activity close to that found in the same model in mouse
same,anticonvulsant activity against bicuculline (in words),[4],in the same order of potency of their MES anticonvulsant activity
same,ED50,[4],65 mg/kg
NC(=O)[C@@H](CO)NC1Cc2ccccc2C1 [CHF 2996],anticonvulsant activity / potency in MES (in words),"[1]; mouse, p.o.",equipotent in the MES test
same,ED50,[1]; [7],34 mg/kg
same,TD50,[2]; [8],> 1500 mg/kg
same,T.I. (in words),"motor function, mouse",higher T.I.
same,neurotoxicity / impairment of motor coordination (in words),"motor function, mouse",low value of neurotoxicity
same,T.I. (therapeutic index),"motor function, mouse",44
same,Duration of action (time at which the protection is statistically significant),[3],2 h
same,Peak of activity (time of the maximal effect),[3],1 h
same,ED50,[3],32 mg/kg
same,anticonvulsant activity in rat MES (in words),[3],anticonvulsant activity close to that found in the same model in mouse
"Cl.NC(=O)CNC1Cc2ccccc2C1 [CHF 3381, 2-(2-indanylamino)acetamide hydrochloride]",ED50,[1]; Mus musculus,21 mg/kg
same,anticonvulsant activity / potency in MES (in words),"[1]; mouse, p.o., hydrochloride",more potent in inhibiting MES; also recorded: more potent as an anticonvulsant than the 1-aminoindane of the prior art
same,TD50,[2]; [9],274 mg/kg
same,T.I. (in words),"motor function, mouse",higher T.I. than the prior art 1-aminoindane compound 2
same,neurotoxicity / impairment of motor coordination (in words),"motor function, mouse",more neurotoxic
same,T.I. (therapeutic index),"motor function, mouse",13
"C[C@H](NC1Cc2ccccc2C1)C(N)=O [CHF 3431, (S) 2-(2-indanylamino)propionamide]",anticonvulsant activity / potency in MES (in words),"[1]; mouse, p.o.",more potent in inhibiting MES
same,ED50,[1]; [7],22 mg/kg
same,TD50,[2]; [8],251 mg/kg
same,neurotoxicity / impairment of motor coordination (in words),"motor function, mouse",more neurotoxic
same,T.I. (therapeutic index),"motor function, mouse",11
"CN(C1Cc2ccccc2C1)[C@H](CO)C(N)=O.Cl [CHF 3440, (R)-3-hydroxy-2-(N-methyl-2-indanylamino)propanamide hydrochloride]",anticonvulsant activity / potency in MES (in words),"[1]; mouse, p.o.",same anticonvulsant activity
same,ED50,[1]; [7],35 mg/kg
same,TD50,[2]; [9],689 mg/kg
same,neurotoxicity / impairment of motor coordination (in words),"motor function, mouse",increase of the neurotoxicity
same,T.I. (therapeutic index),"motor function, mouse",20
"C[C@H](NCc1ccc(OCc2cccc(F)c2)cc1)C(N)=O [FCE 26743, (S)-2-(4-(3-fluorobenzyloxy)benzylamino)propanamide, reference compound]",Duration of action (time at which the protection is statistically significant),[3],1 h
same,Peak of activity (time of the maximal effect),[3],0.5 h
same,ED50,[3],11 mg/kg
same,anticonvulsant activity in rat MES (in words),[3],anticonvulsant activity close to that found in the same model in mouse
same,anticonvulsant activity against bicuculline (in words),[4],in the same order of potency of their MES anticonvulsant activity
same,ED50,[4],20 mg/kg
"CS(=O)(=O)O.NC(=O)C(CO)NCc1ccc(OCCCc2ccccc2)cc1 (stereo not shown) [FCE 28245, 3-hydroxy-2-(4-(3-phenylpropyloxy)benzylamino)propanamide methanesulphonate, reference compound]",ED50,[1]; [7],180 mg/kg
same,TD50,[2]; in vivo,1670 mg/kg
same,T.I. (therapeutic index),"motor function, mouse",9
same,anticonvulsant activity in electro-shock convulsions (in words),[5],claimed to be active
"NC(=O)CN(CC(N)=O)C1CCc2ccccc21 (stereo not shown) [N,N-di-(2-acetamido)-1-aminoindan]",anticonvulsant activity (in words),convulsions,not very effective
same,therapeutic index (in words),convulsions,don't seem endowed with a particularly favorable therapeutic index
NC(=O)CNC1CCCc2ccccc21 (stereo not shown) [N-(2-acetamido)-1-aminotetralin],anticonvulsant activity (in words),convulsions,not very effective
same,therapeutic index (in words),convulsions,don't seem endowed with a particularly favorable therapeutic index
NC(=O)CNC1CCc2ccc(F)cc21 (stereo not shown) [N-(2-acetamido)-6-fluoro-1-aminoindan],anticonvulsant activity (in words),convulsions,not very effective
same,therapeutic index (in words),convulsions,don't seem endowed with a particularly favorable therapeutic index
CC(NC1CCc2ccccc21)C(N)=O (stereo not shown) [N-(2-propionamido)-1-aminoindan],anticonvulsant activity (in words),convulsions,not very effective
same,therapeutic index (in words),convulsions,don't seem endowed with a particularly favorable therapeutic index
"NC(=O)CN[C@H]1CCc2ccccc21 [TEVA Comp. 2, (S)-2-(indanylamino)acetamide, reference compound]",ED50,[1]; [7],38 mg/kg
same,TD50,[2]; in vivo,299 mg/kg
same,T.I. (therapeutic index),"motor function, mouse",8
NC(=O)N1c2ccccc2C=Cc2ccccc21 [carbamazepine],therapeutic index (in words),[6],smaller therapeutic indexes
O=C1NC(=O)C(c2ccccc2)(c2ccccc2)N1 [phenytoin],therapeutic index (in words),[6],smaller therapeutic indexes
